Assay results from patent US7309793B2, “Benzopyran derivatives substituted with a benzimidazole derivative, pharmaceutically acceptable salts therof, their preparations and pharmaceutical compositions containing them” (Dongbu Hannong Chemical Co., Ltd., priority 2003, dated 2007).

Experiments:
rat aorta = assay: Vasodilating effect on blood vessel isolated from white rats (methoxamine-constricted aortic rings); settings: for IC50: isolated rat aorta constricted with methoxamine (3 μM), endothelium removed, read-out: Concentration for inhibition of constriction induced by methoxamine in rat arota (IC50); for weaker vasorelaxation effect than that of BMS-180448 (times): ratio of IC50 versus BMS-180448
Excerpt: White rats (350˜450 g; the Experimental Animal Team of the Korea Research Institute of Chemical Technology) were knocked to be unconscious by hitting the occipital region, sacrificed by cervical dislocation, and underwent thoracotomy. After being quickly removed, the thoracic aorta was deprived of the adipose tissue and cut into aortic rings of 3 mm width. The aorta was lightly rubbed with cotton club soaked in a modified Krebs Henseleit buffer (physiological salt solution) to remove the inner […] layer therefrom. While being hung in an organ bath containing a physiological buffer, the vascular smooth muscle was allowed to equilibrate under a resting tension of 2 g and then, stand for 1 hour at 37° C. for stabilization, supplying a carbogen consisting of 95% O2/5% CO2. Thereafter, the vascular smooth muscle was constricted with 10^−5 M phenylephrine and washed several times with physiological saline solution. The said procedure was repeated to ensure the stable reactivity of vascular smooth muscle to repetitive constriction/relaxation.
Thereafter, 3×10^−6 M methoxamine was applied to induce an intensive constriction in the vascular smooth muscle. When the vasoconstriction induced by the methoxamine was reached and maintained to a maximum, test compounds and control material were cumulatively added to the organ bath with concentration of 1, 3, 10 and 30 μM, respectively, to examine the vasodilating effect. Cromakalim and BMS-180448 (compound of <Formula 2>), known to be the first generation KATP opener with potent vasodilating effect, were used as control materials.
The change rate of constriction by the addition of the drugs compared to the maximal constriction induced by methoxamine was calculated to plot a concentration-relaxation response curve. Through a least linear regression analysis, IC50 that the drug concentration at which the vascular tissue is relaxed to 50% extent of the maximal constriction, was obtained for each drug. And the results were shown in the below Table 1.

isolated rat hearts = assay: Cardioprotective effect on isolated ischemic heart models of white rats (Langendorff, global ischemia-reperfusion); settings: 10 μM; for LVDP × HR (left ventricular developed pressure × heart rate), % of pre-treatment / EDP (left ventricular end diastolic pressure): 30 min global ischemia, 30 min reperfusion; for EDP (left ventricular end diastolic pressure): baseline 5 mmHg; for LDH (concentration of lactate dehydrogenase, reperfusion release): after 30 min reperfusion; for TTC (time to contracture / time to induce contraction): during 30 min global ischemia, first 5 mmHg increase in EDP
Method: 100 mg/kg of sodium pentobarbital was injected in abdominal cavity of white male rats (300˜450 g; the experimental animal team of the Korea Research Institute of Chemical Technology) to anesthetize them. Then, an intravenous injection of 1000 U/kg of heparin was performed before taking out heart. Particularly, cannula(PE 240) was inserted in the trachea, and artificial respiration was tried upon the rat by using a rodent ventilator. Under that condition, aortic cannula was inserted in the aorta and heart was taken out under retrograde perfusion. The extracted heart was hung on Langendorff apparatus quickly and unnecessary tissues on heart were removed. Perfusion was induced under static pressure (85 mmHg) with 37° C. modified Krebs-Henseleit bicarbonate buffer (composition <mM/L>: 116 NaCl, 4.7 KCl, 1.1 MgSO4, 1.17 KH2PO4, 24.9 NaHCO3, 2.52 CaCl2, 8.32 Glucose, 2.0 Pyruvate) saturated with 95% O2/5% CO2. A metal cannula, to which a latex balloon filled with a ethanol-distilled water mixture (1:1 vol/vol) was linked, was inserted in left ventricle through pulmonary vein. Then, left ventricular pressure transmitted through the balloon was transduced by using pressure transducer, and amplified by using isovolumetric amplifier(Plugsys bridge amplifier). Then, the pressure was recorded in a recorder (Linearcorder mark 8 WR 3500). Thereafter, heart was stabilized for 15 minutes. Then, left ventricular end diastolic pressure (LVEDP) was given by 5 mmHg and such volume of the balloon was kept throughout the experiments.
Baseline cardiac contractile function, heart rate (HR), and coronary flow (CF) were measured. Cardiac contractile function was calculated by […], yielding LVDP (left ventricular developed pressure). Double product RPP (rate-pressure product)(DP), another important parameter for indirectly assessing cardiac performance in Langendorff heart, in which cardiac output could not be measured ordinarily, was calculated by multiplying HR by LVDP. Throughout the experiment, total coronary blood flow was measured by the use of coronary flow probe (diameter: 1.0 mm) installed in aortic cannula with electromagnetic flowmeter. Temperature of heart was steadily maintained by immersing the heart at 37° C. in physiological saline solution to which 95% O2/5% CO2 was constantly supplied. After stabilization for 15 min, the hearts were pre-treated for 10 min with vehicle (0.04% DMSO) only or a compound of the present invention or the control material in the vehicle. Thereafter, cardiac contractile function, HR and CF were repeatedly measured. Global ischemia was induced by completely shutting off the perfusate for 30 min. Severity of ischemia was determined as the time to contracture (TTC, min) during global ischemia in which the first 5 mmHg increase in EDP was observed. Then, the hearts were reperfused and, 30 min later, contractile functions (LVDP, HR and CF) were repeatedly measured. After reperfusion was accomplished for 30 min, LDH (lactate dehydrogenase) was measured with a kit as a sensitive index for loss of cell viability.

Structure (SMILES) | IC50 (rat aorta) [µM] | weaker vasorelaxation effects than that of Cromakalim (times) (rat aorta; ratio of IC50 versus Cromakalim) | LVDP × HR (left ventricular developed pressure × heart rate), % of pre-treatment (isolated rat hearts) [%] | EDP (left ventricular end diastolic pressure) (isolated rat hearts) [mmHg] | LDH (concentration of lactate dehydrogenase, reperfusion release) (isolated rat hearts) [unit/g] | TTC (time to contracture / time to induce contraction) (isolated rat hearts) [min] | weaker vasorelaxation effect than that of BMS-180448 (times) (rat aorta)
CC1(C)Oc2ccc(C#N)cc2[C@@H](NC(=NC#N)Nc2ccc(Cl)cc2)[C@@H]1O [BMS-180448, reference compound] | 1.38 | twenty times weaker | 67.6 | 16.5 | 17.2 | 27.8 | –
CC1(C)Oc2ccc(C#N)cc2C(N2CCCC2=O)C1O (centres unmarked) [Cromakalim, reference compound] | 0.067 | – | – | – | – | – | –
COC(OC)[C@@]1(C)Oc2ccc([N+](=O)[O-])cc2[C@H](n2c(=NC#N)[nH]c3ccccc32)[C@H]1O [Example 1, (2S, 3R, 4S)-6-nitro-3,4-dihydro-3-hydroxy-2-dimethoxymethyl-2-methyl-4-(2,3-dihydro-2-cyanoimino-1H-benzimidazol-1-yl)-2H-1-benzopyran] | 50.1 | – | 68.8 | 20.3 | 8.1 | 23.2 | 36
COC(OC)[C@@]1(C)Oc2ccc([N+](=O)[O-])cc2[C@H](n2c(=O)[nH]c3ccccc32)[C@H]1O [Example 18, (2S, 3R, 4S)-6-nitro-3,4-dihydro-3-hydroxy-2-dimethoxymethyl-2-methyl-4-(2,3-dihydro-2-oxo-1H-benzimidazol-1-yl)-2H-1-benzopyran] | – | – | 41.5 | 29.3 | 20.4 | 24.2 | –
CC1(C)Oc2ccc([N+](=O)[O-])cc2[C@H](n2c(=O)[nH]c3ccccc32)[C@H]1O [Example 20, (3R, 4S)-6-nitro-3,4-dihydro-3-hydroxy-2,2-dimethyl-4-(2,3-dihydro-2-oxo-1H-benzimidazol-1-yl)-2H-1-benzopyran] | 18.6 | – | 55.5 | 29.0 | 20.7 | 23.9 | 10
